Here are results for 1 molecule from paper PMC9548378 (Science translational medicine, 2022).

Broadly, the Kd is the equilibrium constant for the complex coming apart. Read a high Kd as weaker binding.

This assay concerns the target T1, KDM4B (Homo sapiens, UniProt O94953).
T1 sequence (O94953 1-366): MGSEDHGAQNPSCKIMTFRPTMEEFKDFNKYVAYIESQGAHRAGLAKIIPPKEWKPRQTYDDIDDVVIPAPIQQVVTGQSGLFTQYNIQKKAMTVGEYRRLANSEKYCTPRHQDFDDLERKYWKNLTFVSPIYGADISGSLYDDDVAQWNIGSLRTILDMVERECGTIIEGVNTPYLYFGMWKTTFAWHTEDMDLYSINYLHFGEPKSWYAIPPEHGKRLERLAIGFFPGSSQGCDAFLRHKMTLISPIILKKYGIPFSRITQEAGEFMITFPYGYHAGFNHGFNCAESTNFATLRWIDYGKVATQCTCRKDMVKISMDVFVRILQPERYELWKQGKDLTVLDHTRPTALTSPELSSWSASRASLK
Kind of assay: co-crystal structure. The assay is classed as binding.

`CN(c1ccccc1)c1ccc2c(c1)CCC[C@H]2CNc1cnccc1C(=O)O` [QC6352] yielded a Kd of 105 nM.
